Experimental data from US20260232662A1, “MIR-124 INDUCER, AND PREPARATION METHOD THEREFOR AND USE THEREOF” (NANJING SYNNOCARE PHARMACEUTICAL TECHNOLOGY CO., LTD., priority 2023, published 2026).

Test system: miR-124
Assay: Induction of miR-124 expression in PBMC cells (qPCR)
Type: cell-based
Conditions: Homo sapiens, 72 h, 0.1 μM compound, human PBMCs stimulated with PMA/ionomycin, miR-191 reference gene, read-out: miR-124 expression, Fold change vs DMSO
Method: This study evaluated the ability of the compound of the present invention to influence miR-124 transcriptional activity in vitro. The experiment analyzed miR-124 expression in human PBMCs (Sailybio) using quantitative PCR (qPCR).
Thawed human PBMCs (1 mL) were added to 19 mL of culture medium (RPMI1640+10% hFBS+1‰ 2-mercaptoethanol) and the PBMCs were incubated in a cell culture incubator for 30 minutes. The PBMCs were collected and the cells (3.0*10^6 cells/well/3 mL) were resuspended in medium containing PMA (10 ng/mL; Invivogen) and ionomycin (200 ng/mL; Invivogen). The cells were incubated in a 6-well plate for 48 hours. Diluted compound was added to the cells to achieve a final concentration of 0.1 μM. After 72 hours, the samples were centrifuged and the cells were collected.
Total miRNA was extracted from the cells using the MiPure Cell/Tissue miRNA Kit (Vazyme) according to the manufacturer's instructions, followed by purification. The purified samples were treated with genomic DNA elimination buffer, and reverse transcription was performed using a GeneAmp PCR System. The resulting cDNA was subjected to quantitative real-time PCR (qPCR) analysis on a QuantStudio™ 7 Flex Real-Time PCR System. Data analysis was performed using the QuantStudio 7 software with default settings to automatically determine Ct values, and the results were exported. In this assay, miR-191 was used as the reference gene, and the DMSO-treated group served as the control. The relative expression of miR-124 was calculated using the following formula: […]

Question: Fc1cc(Cl)cc2nc(Nc3ccc4c(c3)OC(F)(F)O4)c3nccn3c12 [Compound B87, 7-chloro-9-fluoro-N-(2,2-difluorobenzo[d] [1,3]dihydroxy-5-yl)imidazo[1,2-a] quinoxalin-4-amine] was tested. Which fold induction at 0.1 µM did it give?
Answer: 15.8

Question: Which fold induction at 0.1 µM does the source give for Fc1cc(Nc2nc3cccc(Cl)c3n3ccnc23)ccc1OC(F)(F)F [Compound B55, 9-chloro-N-(3-Fluoro-4-(trifluoromethoxy)phenyl)imidazolo [1,2-a]quinoxalin-4-amine] here?
Answer: 36.3

Question: With Fc1cc(Nc2nc3cc(Cl)ccc3n3ccnc23)ccc1OC(F)(F)F [Compound B107, 7-chloro-N-(3-fluoro-4-(trifluoromethoxy)phenyl) imidazolo[1,2-a] quinoxalin-4-amine] as the compound, how does the fold induction at 0.1 µM read?
Answer: 24.4

Question: With FC(F)(F)Oc1ccc(Nc2nc3c(Br)cccc3n3ccnc23)cc1 [Compound 48] as the compound, how does the fold induction at 0.1 µM read?
Answer: 20.4

Question: Cn1c(=O)c(Nc2ccc(SC(F)(F)F)cc2)nc2c(Cl)cccc21 [Compound 10] was tested. Which fold induction at 0.1 µM did it give?
Answer: 15.4

Question: Which fold induction at 0.1 µM does the source give for Fc1cc(Cl)cc2c1N=C(Nc1ccc(C(F)(F)F)cc1)C1=NCCN12 [Compound 95] here?
Answer: 27

Question: Which fold induction at 0.1 µM does the source give for FC(F)(F)Oc1ccc(Nc2nc3cc(Br)cc(Cl)c3n3ccnc23)cc1 [Compound B23, 7-bromo-9-Chloro-N-(4-(trifluoromethoxy)phenyl)imidazolo [1,2-a]quinoxalin-4-amine] here?
Answer: 25.2

Question: FC(F)(F)Oc1ccc(NC2=Nc3ccc(Cl)cc3N3CCN=C23)cc1Cl [Compound B144, 8-chloro-N-(3-chloro-4-(trifluoromethoxy)phenyl)-1,2-dihydroimidazo[1,2-a] quinoxalin-4-amine] was tested. Which fold induction at 0.1 µM did it give?
Answer: 27.8

Question: For Fc1ccc2nc(Nc3ccc(OC(F)(F)F)cc3)c3nccn3c2c1 [Compound B5, 8-fluoro-N-(4-(trifluoromethoxy)phenyl)imidazolo [1,2-a]quinoxalin-4-amine], which fold induction at 0.1 µM is on record?
Answer: 31.3

Question: With FC(F)(F)c1ccc(Nc2nc3cc(Cl)cc(Cl)c3n3ccnc23)cc1 [Compound B96, 7,9-dichloro-N-(4-(trifluoromethyl)phenyl) imidazolo[1,2-a] quinoxalin-4-amine] as the compound, how does the fold induction at 0.1 µM read?
Answer: 23.2

Question: How did the fold induction at 0.1 µM turn out when Fc1cc(NC2=Nc3cccc(Cl)c3N3CCN=C23)ccc1OC(F)(F)F [Compound B119, 9-chloro-N-(3-fluoro-4-(trifluoromethoxy)phenyl)-1,2-dihydroimidazo[1,2-a] quinoxalin-4-amine] was run?
Answer: 25.4

Question: Fc1cccc2c1nc(Nc1ccc(C(F)(F)F)cc1)c1nccn12 [Compound 45] was tested. Which fold induction at 0.1 µM did it give?
Answer: 17.9

Question: Which fold induction at 0.1 µM does the source give for Fc1cc(NC2=Nc3c(Br)cccc3N3CCN=C23)ccc1OC(F)(F)F [Compound 83] here?
Answer: 18.3

Question: How did the fold induction at 0.1 µM turn out when FC(F)(F)Oc1ccc(Nc2nc3cc(Cl)c(Cl)cc3n3ccnc23)cc1 [Compound B24, 7,8-dichloro-N-(4-(trifluoromethoxy)phenyl)imidazolo [1,2-a]quinoxalin-4-amine] was run?
Answer: 26.7

Question: Fc1cc(NC2=Nc3cccc(Cl)c3N3CCN=C23)ccc1C(F)(F)F [Compound B122, 9-chloro-N-(3-fluoro-4-(trifluoromethyl)phenyl)-1,2-dihydroimidazo[1,2-a] quinoxalin-4-amine] was tested. Which fold induction at 0.1 µM did it give?
Answer: 27.3

Question: Which fold induction at 0.1 µM does the source give for FC(F)(F)Sc1ccc(Nc2nc3cccc(Cl)c3n3ccnc23)cc1 [Compound B50, 9-chloro-N-(4-(trifluoromethylthio)phenyl)imidazolo [1,2-a]quinoxalin-4-amine] here?
Answer: 21.3

Question: Which fold induction at 0.1 µM does the source give for Fc1cc(NC2=Nc3cc(Cl)ccc3N3CCN=C23)ccc1OC(F)(F)F [Compound B149, 7-chloro-N-(3-fluoro-4-(trifluoromethoxy)phenyl)-1,2-dihydroimidazo[1,2-a] quinoxalin-4-amine] here?
Answer: 34.7

Question: For Fc1cc(Nc2nc3cccc(Cl)c3n3ccnc23)ccc1C(F)(F)F [Compound B53, 9-chloro-N-(3-Fluoro-4-(trifluoromethyl)phenyl)imidazolo [1,2-a]quinoxalin-4-amine], which fold induction at 0.1 µM is on record?
Answer: 36.8

Question: How did the fold induction at 0.1 µM turn out when Fc1ccc2c(c1)nc(Nc1ccc(OC(F)(F)F)cc1)c1nccn12 [Compound B8, 7-fluoro-N-(4-(trifluoromethoxy)phenyl)imidazolo [1,2-a]quinoxalin-4-amine] was run?
Answer: 33.5

Question: Which fold induction at 0.1 µM does the source give for FC(F)(F)Oc1ccc(Nc2nc3c(Cl)cccc3n3cnnc23)cc1 [Compound 6] here?
Answer: 11.9

Question: Fc1cccc2c1N=C(Nc1ccc(OC(F)(F)F)cc1)C1=NCCN12 [Compound 73] was tested. Which fold induction at 0.1 µM did it give?
Answer: 8.59

Question: How did the fold induction at 0.1 µM turn out when FC(F)(F)Oc1ccc(Nc2nc3cccc(Br)c3n3ccnc23)cc1 [Compound B3, 9-bromo-N-(4-(trifluoromethoxy)phenyl)imidazolo [1,2-a]quinoxalin-4-amine] was run?
Answer: 23.5

Question: Which fold induction at 0.1 µM does the source give for FC1(F)Cc2cc(Nc3nc4c(Cl)cccc4n4ccnc34)ccc2O1 [Compound 39, 6-Chloro-N-(2,2-difluoro-2,3-dihydrobenzofuran-5-yl) imidazolo [1,2-a] quinoxalin-4-amine] here?
Answer: 16.8

Question: FC(F)(F)c1ccc(NC2=Nc3cc(Cl)cc(Cl)c3N3CCN=C23)cc1Cl [Compound B141, 7,9-dichloro-N-(3-chloro-4-(trifluoromethyl)phenyl)-1,2-dihydroimidazo[1,2-a] quinoxalin-4-amine] was tested. Which fold induction at 0.1 µM did it give?
Answer: 36.2

Question: For FC(F)(F)c1ccc(NC2=Nc3ccc(Cl)cc3N3CCN=C23)cc1Cl [Compound B147, 8-chloro-N-(3-chloro-4-(trifluoromethyl)phenyl)-1,2-dihydroimidazo[1,2-a] quinoxalin-4-amine], which fold induction at 0.1 µM is on record?
Answer: 27.9

Question: For Cn1c(=O)c(Nc2ccc(OC(F)(F)F)cc2)nc2c(Cl)cccc21 [Compound 1, 5-Chloro-1-methyl-3-((4-(trifluoromethoxy)phenyl)amino) quinoxalin-2(1H)-one], which fold induction at 0.1 µM is on record?
Answer: 16

Question: Fc1cc(Cl)cc2nc(Nc3ccc(C(F)(F)F)cc3)c3nccn3c12 [Compound B90, 7-chloro-9-fluoro-N-(4-(trifluoromethyl)phenyl) imidazolo[1,2-a] quinoxalin-4-amine] was tested. Which fold induction at 0.1 µM did it give?
Answer: 24.9

Question: With Fc1cc(NC2=Nc3ccc(Cl)cc3N3CCN=C23)ccc1OC(F)(F)F [Compound B143, 8-chloro-N-(3-fluoro-4-(trifluoromethoxy)phenyl)-1,2-dihydroimidazo[1,2-a] quinoxalin-4-amine] as the compound, how does the fold induction at 0.1 µM read?
Answer: 28.4

Question: With FC(F)(F)c1ccc(Nc2nc3c(Cl)cc(Cl)cc3n3ccnc23)cc1 [Compound 62] as the compound, how does the fold induction at 0.1 µM read?
Answer: 15.5

Question: With Fc1cc(NC2=Nc3c(F)cc(Cl)cc3N3CCN=C23)ccc1OC(F)(F)F [Compound 92] as the compound, how does the fold induction at 0.1 µM read?
Answer: 18.8

Question: FC(F)(F)c1ccc(Nc2nc3cccc(Cl)c3n3ccnc23)cc1 [Compound B49, 9-chloro-N-(4-(trifluoromethyl)phenyl)imidazolo [1,2-a]quinoxalin-4-amine] was tested. Which fold induction at 0.1 µM did it give?
Answer: 32

Question: For FC(F)(F)Oc1ccc(Nc2nc3ccc(Br)c(Cl)c3n3ccnc23)cc1 [Compound B18, 8-bromo-9-chloro-N-(4-(trifluoromethoxy)phenyl)imidazolo [1,2-a]quinoxalin-4-amine], which fold induction at 0.1 µM is on record?
Answer: 22.6

Question: For Fc1cc(Cl)cc2c1N1CCN=C1C(Nc1ccc(OC(F)(F)F)cc1)=N2 [Compound B130, 7-chloro-9-fluoro-N-(4-(trifluoromethoxy)phenyl)-1,2-dihydroimidazo[1,2-a] quinoxalin-4-amine], which fold induction at 0.1 µM is on record?
Answer: 25.6

Question: For FC(F)(F)Oc1ccc(Nc2nc3cc(Cl)cc(Cl)c3n3ccnc23)cc1Cl [Compound B95, 7,9-dichloro-N-(3-chloro-4-(trifluoromethoxy)phenyl) imidazolo[1,2-a] quinoxalin-4-amine], which fold induction at 0.1 µM is on record?
Answer: 24.8

Question: Fc1cccc2nc(Nc3ccc(C(F)(F)F)cc3)c3nccn3c12 [Compound B78, 9-fluoro-N-(4-(trifluoromethyl)phenyl) imidazolo[1,2-a] quinoxalin-4-amine] was tested. Which fold induction at 0.1 µM did it give?
Answer: 14.9

Question: For Fc1cc(Nc2nc3c(Br)cccc3n3ccnc23)ccc1C(F)(F)F [Compound 52], which fold induction at 0.1 µM is on record?
Answer: 22.3

Question: With FS(F)(F)(F)(F)c1ccc(Nc2nc3cccc(Cl)c3n3ccnc23)cc1 [Compound B60, 9-chloro-N-(4-(thiopentafluoride)phenyl)imidazolo[1,2-a]quinoxalin-4-amine] as the compound, how does the fold induction at 0.1 µM read?
Answer: 24.8

Question: How did the fold induction at 0.1 µM turn out when FC(F)(F)Oc1ccc(NC2=Nc3cc(Cl)cc(Cl)c3N3CCN=C23)cc1Cl [Compound B138, 7,9-dichloro-N-(3-chloro-4-(trifluoromethoxy)phenyl)-1,2-dihydroimidazo[1,2-a] quinoxalin-4-amine] was run?
Answer: 29.9

Question: With Cn1c(=O)c(Nc2ccc(C(F)(F)F)cc2)nc2c(Cl)cccc21 [Compound 11] as the compound, how does the fold induction at 0.1 µM read?
Answer: 18.4

Question: Which fold induction at 0.1 µM does the source give for Fc1cccc2c1nc(Nc1ccc(OC(F)(F)F)cc1)c1nccn12 [Compound 41] here?
Answer: 24.4

Question: With Fc1cc(Nc2nc3c(F)cccc3n3ccnc23)ccc1C(F)(F)F [Compound 46] as the compound, how does the fold induction at 0.1 µM read?
Answer: 9.99

Question: For Fc1cc(Cl)cc2c1N=C(Nc1ccc(OC(F)(F)F)cc1)C1=NCCN12 [Compound 91], which fold induction at 0.1 µM is on record?
Answer: 27.6

Question: Which fold induction at 0.1 µM does the source give for FC(F)(F)c1ccc(Nc2nc3ccc(Cl)cc3n3ccnc23)cc1 [Compound B103, 8-chloro-N-(4-(trifluoromethyl)phenyl) imidazolo[1,2-a] quinoxalin-4-amine] here?
Answer: 25.5

Question: With Cn1c(=O)c(Nc2ccc3c(c2)OC(F)(F)O3)nc2c(F)cc(Cl)cc21 [Compound 14] as the compound, how does the fold induction at 0.1 µM read?
Answer: 24.7
